This assay has as its system M. furfur. Kind of assay: Antimicrobial activity (MIC) micromethod in microplates on microorganisms responsible for dandruff. Format: cell-based. The conditions noted are these: Sabouraud medium with 10% olive oil, 24 to 48 hours at 32.5° C., OD 620 nm vs control without peptide, peptide tested at 0.1%, 0.25%, 0.5% and 1%. On the procedure: The antimicrobial activity of the peptides used according to the invention may be evaluated by measuring their minimum inhibitory concentration (MIC). Decreasing concentrations of peptides are contacted with standardised inoculum of microorganisms in a culture medium suitable for growth of said microorganisms in exponential growth phase. After incubation at the suitable temperature for the microorganism, the growth is evaluated by an OD (620 nm) measurement. […] The MIC obtained may be compared with the same measurement performed only with solvent (without the peptide) or with a compound of known antibiotic activity. This test may also be used to test the selectivity of the peptides used. This method can be used to determine the effect of the test peptide on a beneficial microorganism of the microbial flora of the scalp such as Staphylococcus epidermidis. Peptides that give on the strains responsible for desquamative disorders of the hair and/or the scalp (e.g., M. furfur) better inhibition than on the beneficial strains (e.g., S. epidermidis) will be selected.
The test has been carried using a micromethod in microplates. […]
After incubation of the microplate from 24 to 48 hours at 32.5° C., optical density at 620 nm has been measured. […]

Ends that are not written are not given here.

With “FLSLIPHAINAVSAIAKHF-NH2 (listed as Phyllomedusa azurea) [PS-7]”, the MIC is given as less than 0.1%.

As for “GLWSTIKNVGKEAAIAAGKAALGAL-NH2 (listed as Phyllomedusa hypochondrialis) [DPh-1]”, the MIC is recorded as less than 0.1%.

Source of the values: patent US9265709B2, “Use of peptides as antidandruff agents” (L'OREAL, priority 2009, dated 2016).
